Measurements: ChEMBL document CHEMBL1147786, “Synthesis and evaluation of a mechanism-based inhibitor of a 3-deoxy-D-arabino heptulosonate 7-phosphate synthase” (Bioorg Med Chem Lett, 2006)

Experiment: Inhibition of Escherichia coli DAH7P synthase

IC50: 6.6 µM
Structure (SMILES): O=C(O)CN(C[C@H](O)[C@@H](O)[C@@H](O)COP(=O)(O)O)CP(=O)(O)O
